Assay results published in US11214803B2, “Modulators of YAP1 expression” (Ionis Pharmaceuticals, Inc., priority 2019, dated 2022).
Strand notation (5' to 3'): a small letter for the sugar, then the base; units joined by * are phosphorothioate-linked, units joined directly phosphodiester-linked; [ ] holds rarer units or linkages, { } end groups; capitals alone tell only the bases. k = constrained ethyl (cEt); [5mC] = 5-methylcytosine; d = 2'-deoxy (DNA)

tested on: Yap1 mRNA; test: Antisense inhibition of human Yap1 in A-431 cells by cEt gapmers, single dose (Example 3, RTS36584); format: cell-based; conditions: Table 8; A-431 cells, 5,000 cells per well, free uptake, 2,000 nM, approximately 48 hours; RTS36584; normalized to RIBOGREEN; Yap1 mRNA relative to untreated control cells
Summary of the method: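 A-431 cells (5,000/well) took up the 3-10-3 cEt gapmers by free uptake at 2,000 nM for about 48 h. Yap1 mRNA was measured by RT-qPCR with primer probe set RTS36584, normalized to RiboGreen total RNA, and given as % of untreated control.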

Row | Substance | YAP1 (% UTC)
1 | 958380 (antisense k[5mC]*kG*k[5mC]*dG*d[5mC]*d[5mC]*d[5mC]*dG*d[5mC]*d[5mC]*d[5mC]*dG*d[5mC]*kA*k[5mC]*k[5mC]) [Compound 958380] | 106
2 | 958396 (antisense kA*kG*kG*d[5mC]*dT*dA*dT*dT*dA*dA*dG*d[5mC]*dT*kG*kT*kT) [Compound 958396] | 131
3 | 958398 (antisense kG*k[5mC]*kA*dG*dG*d[5mC]*dT*dA*dT*dT*dA*dA*dG*k[5mC]*kT*kG) [Compound 958398] | 76

same assay, conditions: Table 9; A-431 cells, 5,000 cells per well, free uptake, 2,000 nM, approximately 48 hours; RTS36584; normalized to RIBOGREEN; Yap1 mRNA relative to untreated control cells

Row | Substance | YAP1 (% UTC)
4 | 958586 (kG*kG*k[5mC]*dA*dG*d[5mC]*dA*d[5mC]*dG*dG*dT*dG*dT*kA*kA*kG; antisense) [Compound 958586] | 78
5 | 958666 (kG*kA*kA*dA*dA*dG*dG*dG*d[5mC]*dA*dA*dT*d[5mC]*kA*kT*kA; antisense) [Compound 958666] | 52
6 | 958631 (antisense kT*kG*k[5mC]*dA*dA*dA*dT*dA*dG*dG*dA*dG*dA*kG*kG*kG) [Compound 958631] | 122
7 | 958731 (antisense kG*k[5mC]*kT*d[5mC]*dT*dG*dT*d[5mC]*dA*dG*dT*dT*dA*kT*k[5mC]*k[5mC]) [Compound 958731] | 7
8 | 958581 (k[5mC]*kT*kG*d[5mC]*dT*dG*dA*dT*dA*dT*dA*dT*dA*kA*kG*kA; antisense) [Compound 958581] | 26

same assay, conditions: Table 10; A-431 cells, 5,000 cells per well, free uptake, 2,000 nM oligonucleotide, approx. 48 hours; primer probe set RTS36584; Yap1 mRNA normalized to RIBOGREEN, percent of untreated control

Row | Substance | YAP1 (% UTC)
9 | 958772 (antisense k[5mC]*kA*kA*d[5mC]*dA*dA*dA*d[5mC]*dA*dT*dA*dG*dT*kT*kA*k[5mC]) [Compound 958772] | 61
10 | 958612 (antisense kA*k[5mC]*k[5mC]*dT*dA*dA*d[5mC]*dA*dT*dA*dT*dG*dA*kG*k[5mC]*kA) [Compound 958612] | 18

same assay, conditions: Table 11; A-431 cells, 5,000 cells per well, free uptake, 2,000 nM oligonucleotide, approx. 48 hours; primer probe set RTS36584; Yap1 mRNA normalized to RIBOGREEN, percent of untreated control

Row | Substance | YAP1 (% UTC)
11 | 958548 (kG*kA*k[5mC]*dA*d[5mC]*dA*dT*dA*d[5mC]*dT*d[5mC]*dT*dA*kG*kT*kT; antisense) [Compound 958548] | 21

same assay, conditions: Table 12; A-431 cells, 5,000 cells per well, free uptake, 2,000 nM modified oligonucleotide, approx. 48 hours; RTS36584; normalized to RIBOGREEN; Yap1 mRNA relative to untreated control cells

Row | Substance | YAP1 (% UTC)
12 | 958774 (antisense kT*kG*k[5mC]*dT*dA*dG*dA*dT*dA*dT*d[5mC]*dG*d[5mC]*k[5mC]*kA*kA) [Compound 958774] | 33
13 | 958729 (antisense kG*kT*k[5mC]*dA*dG*dT*dT*dA*dT*d[5mC]*d[5mC]*dT*dA*kT*k[5mC]*kT) [Compound 958729] | 4

same assay, conditions: Table 13; A-431 cells, 5,000 cells per well, free uptake, 2,000 nM modified oligonucleotide, approx. 48 hours; RTS36584; normalized to RIBOGREEN; Yap1 mRNA relative to untreated control cells

Row | Substance | YAP1 (% UTC)
14 | 958795 (antisense kT*kA*kT*dT*d[5mC]*d[5mC]*dG*d[5mC]*dA*dT*dT*dG*d[5mC]*k[5mC]*kT*kA) [Compound 958795] | 8
15 | 958715 (antisense kG*kT*kA*dA*dT*dA*dG*dG*dA*dG*dG*dT*dA*kA*kG*kA) [Compound 958715] | 48
16 | 958540 (kA*kT*kT*d[5mC]*dT*dA*dT*d[5mC]*d[5mC]*dA*dG*dG*dG*kT*k[5mC]*kA; antisense) [Compound 958540] | 8
17 | 958565 (kT*kT*kG*dA*dG*d[5mC]*dA*d[5mC]*dT*dG*dA*dA*dA*kG*kT*kA; antisense) [Compound 958565] | 4
18 | 958745 (antisense kT*k[5mC]*k[5mC]*d[5mC]*dA*dG*d[5mC]*d[5mC]*dG*d[5mC]*dA*dT*dG*kG*k[5mC]*kT) [Compound 958745] | 78

same assay, conditions: Table 26; Yap1 mRNA by 3-10-3 cEt gapmers targeting SEQ ID NO.: 1, and 2; percent of untreated control

Row | Substance | YAP1 (% UTC)
19 | 1074924 (antisense k[5mC]*k[5mC]*kT*dG*d[5mC]*dA*dA*dA*dT*dA*dG*dG*dA*kG*kA*kG) [compound 1074924] | 87
20 | 1074636 (antisense kA*kT*k[5mC]*dT*dA*dT*d[5mC]*dT*dT*d[5mC]*d[5mC]*d[5mC]*dA*kA*kG*k[5mC]) [compound 1074636] | 56
21 | 1074380 (kG*kT*k[5mC]*dT*dG*dG*dG*dA*dA*dA*d[5mC]*dG*dG*kT*kT*k[5mC]; antisense) [compound 1074380] | 11

same assay, conditions: Table 27; Yap1 mRNA by 3-10-3 cEt gapmers targeting SEQ ID NO.: 1, and 2; percent of untreated control

Row | Substance | YAP1 (% UTC)
22 | 1075021 (antisense kT*kT*kA*d[5mC]*dA*dA*d[5mC]*d[5mC]*dT*dA*dG*dA*dT*kT*kT*kG) [compound 1075021] | 68
23 | 1076045 (kG*kT*kG*d[5mC]*dA*dA*dT*dA*dA*dA*dT*dA*dG*kT*kT*k[5mC]; antisense) [compound 1076045] | 11
24 | 1075085 (antisense kT*kG*k[5mC]*dG*dG*dA*dA*dA*d[5mC]*dA*dA*dG*dT*kG*kT*kA) [compound 1075085] | 11
25 | 1074893 (antisense kG*k[5mC]*kT*dG*dA*dA*dG*dT*dT*dT*dA*dG*d[5mC]*k[5mC]*kT*kG) [compound 1074893] | 78
26 | 1075981 (kA*kA*kG*d[5mC]*dA*dA*dT*dA*dT*d[5mC]*d[5mC]*dT*dA*k[5mC]*kA*k[5mC]; antisense) [compound 1075981] | 40

same assay, conditions: Table 28; Yap1 mRNA as percent of untreated control; 3-10-3 cEt gapmers targeting SEQ ID NO.: 1, and 2

Row | Substance | YAP1 (% UTC)
27 | 1075502 (k[5mC]*kT*kT*dA*dA*d[5mC]*dA*dT*dG*dA*dT*dT*d[5mC]*kT*kA*kG; antisense) [compound 1075502] | 61
28 | 1075534 (kA*k[5mC]*k[5mC]*d[5mC]*dA*dA*dG*dG*dA*d[5mC]*dA*dG*d[5mC]*kA*k[5mC]*kA; antisense) [compound 1075534] | 53

same assay, conditions: Table 29; Yap1 mRNA as percent of untreated control; 3-10-3 cEt gapmers targeting SEQ ID NO.: 1, and 2

Row | Substance | YAP1 (% UTC)
29 | 1075727 (kT*kT*kA*dT*d[5mC]*dG*dG*dA*dG*dG*d[5mC]*dT*dT*k[5mC]*kG*k[5mC]; antisense) [compound 1075727] | 31
30 | 1076111 (kA*kA*kT*dT*dA*dG*dT*dT*dA*dG*dG*dA*dT*kA*kT*k[5mC]; antisense) [compound 1076111] | 67
31 | 1075599 (antisense kA*k[5mC]*k[5mC]*d[5mC]*dT*dA*dT*dA*dG*d[5mC]*dT*dT*dT*kA*kG*kG) [compound 1075599] | 90
32 | 1074543 (k[5mC]*k[5mC]*kT*dA*dG*dG*d[5mC]*dA*d[5mC]*dT*dA*dT*d[5mC]*k[5mC]*kA*k[5mC]; antisense) [compound 1074543] | 57
33 | 1075919 (antisense kT*k[5mC]*kT*dT*dA*dA*dA*d[5mC]*dT*dA*dA*d[5mC]*dT*kG*kT*kT) [compound 1075919] | 78
34 | 1075151 (kT*kT*kT*dA*dA*dA*dA*dG*dT*dA*d[5mC]*d[5mC]*dA*kG*k[5mC]*kG; antisense) [compound 1075151] | 60
35 | 1074159 (k[5mC]*kG*kA*dG*d[5mC]*dG*dA*dG*dG*dG*d[5mC]*dT*dA*k[5mC]*kG*k[5mC]; antisense) [compound 1074159] | 77

same assay, conditions: Table 34; Yap1 mRNA as percent of untreated control; 3-10-3 cEt gapmers targeting SEQ ID NO: 1 and 2; single dose

Row | Substance | YAP1 (% UTC)
36 | 1074964 (antisense kT*kT*kA*dG*dG*d[5mC]*dA*dA*dG*d[5mC]*dA*dG*d[5mC]*kT*kA*kA) [compound 1074964] | 112
37 | 1074260 (antisense kG*kT*kT*d[5mC]*dA*dT*d[5mC]*dA*dT*dA*dT*dT*d[5mC]*kT*kG*k[5mC]) [compound 1074260] | 48
38 | 1075668 (antisense kA*kA*kT*dT*dA*dT*dT*dG*dG*dT*dG*dA*d[5mC]*kA*k[5mC]*kT) [compound 1075668] | 80
39 | 1074324 (antisense kG*k[5mC]*kA*dG*dG*dG*d[5mC]*dT*dA*dA*d[5mC]*dT*d[5mC]*k[5mC]*kT*kG) [compound 1074324] | 116
40 | 1074996 (antisense kA*kA*kT*dA*dA*dA*dT*dG*d[5mC]*dT*dT*dA*d[5mC]*kG*kG*kG) [compound 1074996] | 60

same assay, conditions: Table 35; Yap1 mRNA as percent of untreated control; 3-10-3 cEt gapmers targeting SEQ ID NO: 1 and 2; single dose

Row | Substance | YAP1 (% UTC)
41 | 1075733 (k[5mC]*kA*kA*dT*dA*dA*d[5mC]*d[5mC]*dT*d[5mC]*dG*dA*dG*kT*kG*k[5mC]; antisense) [compound 1075733] | 28
42 | 1074581 (DNA kA*kA*k[5mC]*d[5mC]*dA*d[5mC]*dT*dA*dT*dA*dA*dA*dG*k[5mC]*kT*kT; antisense) [compound 1074581] | 18
43 | 1075157 (k[5mC]*k[5mC]*kA*dG*dA*dA*dA*dA*dT*d[5mC]*dA*dT*dA*kG*kT*kA; antisense) [compound 1075157] | 19
44 | 1075349 (antisense kA*kT*kT*dA*dA*dA*dG*d[5mC]*dT*d[5mC]*dA*dT*dT*kG*kA*kT) [compound 1075349] | 81
45 | 1075221 (k[5mC]*kA*kT*dT*dA*dT*d[5mC]*d[5mC]*dG*dG*dG*dA*dG*kA*kG*k[5mC]; antisense) [compound 1075221] | 10
46 | 1075285 (antisense kT*kA*kT*dA*d[5mC]*dA*dT*dA*dG*dT*d[5mC]*dA*dA*kT*kT*k[5mC]) [compound 1075285] | 60
